Read-outs that look alike come from different tables or passages of the source.
How the values were obtained:
Experiment in all cases: biochemical
BIKE = BIKE (Homo sapiens, UniProt Q9NSY1)
CK2a2 = CK2a2 (Homo sapiens, UniProt P19784)
EpHA2 = EpHA2 (Homo sapiens, UniProt P29317)
FES = FES (Homo sapiens, UniProt P07332)
FGFR1 = FGFR1 (Homo sapiens, UniProt P11362)
MRCKa = MRCKa (Homo sapiens, UniProt Q5VT25)
SLK = SLK (Homo sapiens, UniProt Q9H2G2)
TLK1 = molecular target: T1, TLK1 (Homo sapiens, UniProt Q9UKI8)
T1 sequence (Q9UKI8 1-766): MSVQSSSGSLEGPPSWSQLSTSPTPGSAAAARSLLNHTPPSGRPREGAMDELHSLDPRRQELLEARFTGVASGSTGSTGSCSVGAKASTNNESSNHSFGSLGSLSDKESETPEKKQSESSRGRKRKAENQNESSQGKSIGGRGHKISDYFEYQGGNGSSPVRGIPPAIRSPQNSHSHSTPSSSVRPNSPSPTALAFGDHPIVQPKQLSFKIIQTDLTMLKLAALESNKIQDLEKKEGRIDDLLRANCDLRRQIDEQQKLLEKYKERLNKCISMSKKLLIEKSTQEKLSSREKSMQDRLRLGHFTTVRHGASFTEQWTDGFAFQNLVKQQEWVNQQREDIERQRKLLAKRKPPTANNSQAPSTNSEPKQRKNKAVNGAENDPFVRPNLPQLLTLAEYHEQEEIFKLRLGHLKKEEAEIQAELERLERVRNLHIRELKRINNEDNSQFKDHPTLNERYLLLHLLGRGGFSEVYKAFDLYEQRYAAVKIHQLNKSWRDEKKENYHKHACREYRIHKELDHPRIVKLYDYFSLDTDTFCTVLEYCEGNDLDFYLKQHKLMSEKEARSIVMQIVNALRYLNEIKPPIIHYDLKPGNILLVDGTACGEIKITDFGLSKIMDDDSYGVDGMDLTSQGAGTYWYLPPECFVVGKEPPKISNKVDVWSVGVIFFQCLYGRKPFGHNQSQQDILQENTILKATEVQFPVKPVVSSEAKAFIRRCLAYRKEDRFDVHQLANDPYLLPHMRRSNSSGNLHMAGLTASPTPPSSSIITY

MST3 [1] = molecular target: T2, MST3 (Homo sapiens, UniProt Q9Y6E0)
Wnk1 = Wnk1 (Homo sapiens, UniProt Q9H4A3)
EpHA4 = EpHA4 (Homo sapiens, UniProt P54764)
EphB1 = molecular target: T3, EphB1 (Homo sapiens, UniProt P54762)
T3 sequence (P54762 1-984): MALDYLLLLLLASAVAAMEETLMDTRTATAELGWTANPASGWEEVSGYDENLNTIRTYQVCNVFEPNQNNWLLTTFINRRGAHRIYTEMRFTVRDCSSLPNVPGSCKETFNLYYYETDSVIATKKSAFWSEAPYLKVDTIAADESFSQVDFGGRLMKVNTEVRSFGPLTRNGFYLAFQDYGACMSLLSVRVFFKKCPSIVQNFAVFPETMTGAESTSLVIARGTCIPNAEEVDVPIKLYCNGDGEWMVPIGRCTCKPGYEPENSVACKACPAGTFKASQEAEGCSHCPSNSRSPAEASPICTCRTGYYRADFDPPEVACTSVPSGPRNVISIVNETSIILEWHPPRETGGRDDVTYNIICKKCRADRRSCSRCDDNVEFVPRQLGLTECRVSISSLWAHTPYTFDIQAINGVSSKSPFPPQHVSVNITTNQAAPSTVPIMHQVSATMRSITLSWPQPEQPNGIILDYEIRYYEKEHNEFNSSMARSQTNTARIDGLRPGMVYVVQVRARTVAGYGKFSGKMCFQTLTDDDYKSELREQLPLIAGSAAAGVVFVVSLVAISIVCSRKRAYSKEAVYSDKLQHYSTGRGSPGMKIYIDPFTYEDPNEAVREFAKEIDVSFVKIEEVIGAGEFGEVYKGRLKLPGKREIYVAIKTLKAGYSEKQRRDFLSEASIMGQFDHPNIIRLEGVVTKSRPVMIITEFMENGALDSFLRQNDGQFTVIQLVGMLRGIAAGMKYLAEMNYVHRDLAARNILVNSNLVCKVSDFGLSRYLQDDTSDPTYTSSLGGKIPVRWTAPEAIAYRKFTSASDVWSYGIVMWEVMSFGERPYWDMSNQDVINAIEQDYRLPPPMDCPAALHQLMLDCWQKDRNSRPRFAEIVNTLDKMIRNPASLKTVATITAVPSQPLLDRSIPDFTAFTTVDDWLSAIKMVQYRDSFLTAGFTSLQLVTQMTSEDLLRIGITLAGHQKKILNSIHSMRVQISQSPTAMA

MST3 [2] = molecular target: T2, MST3; remark: listed apart in the source
PAK1 = PAK1 (Homo sapiens, UniProt Q13153)
PAK1, sequence (Q13153 whole entry): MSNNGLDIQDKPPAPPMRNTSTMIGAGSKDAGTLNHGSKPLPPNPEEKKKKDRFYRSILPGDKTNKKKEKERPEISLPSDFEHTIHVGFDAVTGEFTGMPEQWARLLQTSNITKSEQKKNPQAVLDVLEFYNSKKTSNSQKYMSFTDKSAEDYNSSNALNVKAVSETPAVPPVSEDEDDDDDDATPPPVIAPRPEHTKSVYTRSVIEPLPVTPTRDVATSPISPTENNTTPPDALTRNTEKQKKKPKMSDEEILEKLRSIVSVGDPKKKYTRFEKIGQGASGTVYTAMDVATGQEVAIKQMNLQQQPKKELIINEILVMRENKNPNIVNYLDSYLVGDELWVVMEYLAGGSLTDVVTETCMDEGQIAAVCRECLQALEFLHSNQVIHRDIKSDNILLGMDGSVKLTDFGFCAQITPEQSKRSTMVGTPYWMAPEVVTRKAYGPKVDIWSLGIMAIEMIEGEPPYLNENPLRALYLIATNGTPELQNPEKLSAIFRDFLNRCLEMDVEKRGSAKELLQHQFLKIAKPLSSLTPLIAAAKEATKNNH

EpHA4, sequence (P54764 whole entry): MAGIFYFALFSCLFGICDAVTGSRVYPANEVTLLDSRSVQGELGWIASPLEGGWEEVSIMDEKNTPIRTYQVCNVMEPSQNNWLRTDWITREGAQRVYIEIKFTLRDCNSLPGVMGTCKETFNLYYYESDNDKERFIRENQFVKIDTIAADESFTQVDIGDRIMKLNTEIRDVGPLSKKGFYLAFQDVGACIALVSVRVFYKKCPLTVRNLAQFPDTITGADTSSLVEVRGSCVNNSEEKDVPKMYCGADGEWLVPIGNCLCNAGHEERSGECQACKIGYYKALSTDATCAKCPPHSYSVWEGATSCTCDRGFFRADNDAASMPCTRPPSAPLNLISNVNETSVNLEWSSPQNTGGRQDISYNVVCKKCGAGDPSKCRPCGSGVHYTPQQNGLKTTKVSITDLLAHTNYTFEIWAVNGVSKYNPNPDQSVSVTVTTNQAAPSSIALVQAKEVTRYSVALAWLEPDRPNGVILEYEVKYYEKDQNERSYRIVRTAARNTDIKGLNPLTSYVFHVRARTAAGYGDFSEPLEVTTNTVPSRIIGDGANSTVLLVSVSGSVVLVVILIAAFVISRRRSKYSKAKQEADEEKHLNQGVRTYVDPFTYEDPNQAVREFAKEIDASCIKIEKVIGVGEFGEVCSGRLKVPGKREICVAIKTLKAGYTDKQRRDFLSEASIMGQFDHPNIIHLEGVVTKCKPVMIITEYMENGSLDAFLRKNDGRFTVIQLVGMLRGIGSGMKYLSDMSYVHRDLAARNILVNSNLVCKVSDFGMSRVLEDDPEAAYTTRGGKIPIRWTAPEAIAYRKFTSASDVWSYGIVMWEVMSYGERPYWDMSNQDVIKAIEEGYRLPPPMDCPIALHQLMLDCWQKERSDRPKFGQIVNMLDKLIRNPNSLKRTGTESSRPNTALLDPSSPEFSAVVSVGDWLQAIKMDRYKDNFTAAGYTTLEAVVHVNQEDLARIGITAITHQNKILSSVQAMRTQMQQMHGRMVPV
CK2a2, sequence (P19784 whole entry): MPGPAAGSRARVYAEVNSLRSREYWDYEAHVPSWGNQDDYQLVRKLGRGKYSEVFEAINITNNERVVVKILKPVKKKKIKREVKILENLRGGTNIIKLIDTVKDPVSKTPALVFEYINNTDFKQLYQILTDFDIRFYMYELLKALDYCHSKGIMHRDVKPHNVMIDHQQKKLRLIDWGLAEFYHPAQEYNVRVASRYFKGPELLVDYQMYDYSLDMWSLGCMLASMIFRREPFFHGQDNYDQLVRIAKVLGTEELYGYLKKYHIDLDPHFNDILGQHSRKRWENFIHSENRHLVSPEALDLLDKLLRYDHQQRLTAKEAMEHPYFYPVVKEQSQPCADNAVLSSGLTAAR
MRCKa, sequence (Q5VT25 whole entry): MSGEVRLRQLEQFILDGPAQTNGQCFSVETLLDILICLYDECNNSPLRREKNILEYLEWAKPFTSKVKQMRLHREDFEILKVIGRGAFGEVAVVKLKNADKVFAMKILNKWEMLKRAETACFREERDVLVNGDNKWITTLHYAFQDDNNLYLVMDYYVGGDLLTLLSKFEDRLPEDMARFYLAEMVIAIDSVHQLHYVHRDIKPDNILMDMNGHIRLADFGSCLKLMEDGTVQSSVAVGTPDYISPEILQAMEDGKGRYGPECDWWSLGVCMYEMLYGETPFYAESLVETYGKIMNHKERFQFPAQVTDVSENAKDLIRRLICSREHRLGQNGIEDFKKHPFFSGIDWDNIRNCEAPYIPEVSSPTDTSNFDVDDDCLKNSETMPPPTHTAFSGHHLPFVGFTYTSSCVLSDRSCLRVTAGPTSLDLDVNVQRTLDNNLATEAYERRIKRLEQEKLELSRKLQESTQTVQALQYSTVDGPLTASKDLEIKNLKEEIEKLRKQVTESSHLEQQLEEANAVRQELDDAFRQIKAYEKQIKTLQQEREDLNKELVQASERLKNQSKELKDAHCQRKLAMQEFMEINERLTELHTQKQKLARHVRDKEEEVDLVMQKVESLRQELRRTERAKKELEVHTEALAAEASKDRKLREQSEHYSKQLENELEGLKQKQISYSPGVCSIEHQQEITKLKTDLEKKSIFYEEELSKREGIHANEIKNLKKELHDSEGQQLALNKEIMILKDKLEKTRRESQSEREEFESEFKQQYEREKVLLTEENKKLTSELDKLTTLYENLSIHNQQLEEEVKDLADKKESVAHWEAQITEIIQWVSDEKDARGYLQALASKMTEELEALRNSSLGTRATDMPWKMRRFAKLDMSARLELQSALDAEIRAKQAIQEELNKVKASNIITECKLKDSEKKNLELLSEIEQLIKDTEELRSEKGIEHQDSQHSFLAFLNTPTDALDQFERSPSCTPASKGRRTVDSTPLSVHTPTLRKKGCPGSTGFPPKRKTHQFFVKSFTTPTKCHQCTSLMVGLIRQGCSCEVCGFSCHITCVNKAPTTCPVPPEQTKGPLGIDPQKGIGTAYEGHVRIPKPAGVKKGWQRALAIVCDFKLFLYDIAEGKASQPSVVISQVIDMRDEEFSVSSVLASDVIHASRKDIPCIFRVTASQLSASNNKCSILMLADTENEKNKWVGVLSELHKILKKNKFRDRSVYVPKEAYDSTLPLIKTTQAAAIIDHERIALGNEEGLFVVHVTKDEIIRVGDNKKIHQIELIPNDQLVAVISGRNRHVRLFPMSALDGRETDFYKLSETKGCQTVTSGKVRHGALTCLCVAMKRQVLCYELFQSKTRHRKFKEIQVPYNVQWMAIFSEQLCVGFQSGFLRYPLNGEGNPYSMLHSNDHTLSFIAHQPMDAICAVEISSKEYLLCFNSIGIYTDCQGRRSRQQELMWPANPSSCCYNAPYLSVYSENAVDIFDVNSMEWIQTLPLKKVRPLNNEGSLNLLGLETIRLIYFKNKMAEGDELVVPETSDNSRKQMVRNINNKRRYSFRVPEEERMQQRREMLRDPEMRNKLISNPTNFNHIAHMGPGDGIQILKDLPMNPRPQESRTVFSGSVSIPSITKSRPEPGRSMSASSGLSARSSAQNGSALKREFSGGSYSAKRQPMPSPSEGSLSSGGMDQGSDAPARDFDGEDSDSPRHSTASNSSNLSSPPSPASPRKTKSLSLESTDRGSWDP
T2 sequence (Q9Y6E0 whole entry): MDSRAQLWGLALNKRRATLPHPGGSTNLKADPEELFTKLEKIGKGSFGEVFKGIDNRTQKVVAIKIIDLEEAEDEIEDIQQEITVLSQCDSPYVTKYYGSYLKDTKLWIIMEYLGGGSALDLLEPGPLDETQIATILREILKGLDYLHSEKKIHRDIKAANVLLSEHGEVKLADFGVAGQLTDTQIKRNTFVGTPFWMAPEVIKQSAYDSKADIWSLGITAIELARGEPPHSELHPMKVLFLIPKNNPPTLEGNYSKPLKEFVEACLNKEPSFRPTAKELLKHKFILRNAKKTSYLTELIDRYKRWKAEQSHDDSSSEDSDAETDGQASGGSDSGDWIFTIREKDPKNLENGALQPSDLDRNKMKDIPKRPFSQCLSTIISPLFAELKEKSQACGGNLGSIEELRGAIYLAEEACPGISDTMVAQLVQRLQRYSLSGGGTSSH
FGFR1, sequence (P11362 whole entry): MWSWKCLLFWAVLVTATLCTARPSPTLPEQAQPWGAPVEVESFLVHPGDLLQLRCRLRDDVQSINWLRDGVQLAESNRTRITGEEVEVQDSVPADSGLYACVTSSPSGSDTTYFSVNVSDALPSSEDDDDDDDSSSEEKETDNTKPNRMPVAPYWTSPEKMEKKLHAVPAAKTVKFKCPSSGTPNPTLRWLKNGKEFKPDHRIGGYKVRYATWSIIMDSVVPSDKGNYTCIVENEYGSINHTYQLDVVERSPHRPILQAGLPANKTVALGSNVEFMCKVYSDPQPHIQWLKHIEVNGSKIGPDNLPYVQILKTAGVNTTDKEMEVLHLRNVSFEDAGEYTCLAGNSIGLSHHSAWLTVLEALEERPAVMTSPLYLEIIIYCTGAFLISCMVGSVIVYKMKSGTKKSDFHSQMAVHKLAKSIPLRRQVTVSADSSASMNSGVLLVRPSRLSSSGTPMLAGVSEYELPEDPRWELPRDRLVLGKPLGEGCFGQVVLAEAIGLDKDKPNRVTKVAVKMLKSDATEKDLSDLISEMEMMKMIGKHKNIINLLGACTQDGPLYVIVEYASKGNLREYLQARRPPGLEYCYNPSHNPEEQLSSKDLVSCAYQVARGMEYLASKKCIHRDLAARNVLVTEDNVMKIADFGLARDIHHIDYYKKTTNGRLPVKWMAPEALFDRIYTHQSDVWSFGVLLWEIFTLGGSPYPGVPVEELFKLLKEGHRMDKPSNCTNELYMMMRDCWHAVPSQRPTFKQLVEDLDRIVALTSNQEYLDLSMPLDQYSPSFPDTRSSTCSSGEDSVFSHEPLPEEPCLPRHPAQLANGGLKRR

Structure (SMILES): CNc1ncc2cc(-c3ccc(-c4cccc(C)n4)cc3Cl)c(=O)n(CC3OCC(N)CO3)c2n1 (centres unmarked) [compound 2, G-5555]
- dTm G-5555 (2) (BIKE; 10 µM, binder): 2.5 °C
- dTm G-5555 (2) (CK2a2; 10 µM, binder): -0.6 °C
- dTm G-5555 (2) (EpHA2; 10 µM, binder): 2.2 °C
- dTm G-5555 (2) (FES; 10 µM, binder): 4.1 °C
- dTm G-5555 (2) (FGFR1; 10 µM, binder): -0.1 °C
- dTm G-5555 (2) (MRCKa; 10 µM, binder): 0.9 °C
- dTm G-5555 (2) (SLK; 10 µM, binder): 7.2 °C
- dTm G-5555 (2) (TLK1; 10 µM, binder): -0.3 °C
- ∆Tm G-5555 (2) (MST3 [1]; 10 µM, binder): 7.5 degC
- ∆Tm G-5555 (2) (Wnk1; 10 µM, binder): 2.4 degC

Structure (SMILES): CNc1ncc2cc(-c3ccccc3Cl)c(=O)n(CCCCN)c2n1 [compound 4, 8-(4-Aminobutyl)-6-(2-chlorophenyl)-2-(methylamino)pyrido[2,3-d]pyrimidin-7(8H)-one]
- ΔTm at 10 µM (BIKE; read-out: dTm MR21 (4)): 3.1 °C
- ΔTm at 10 µM (CK2a2; read-out: dTm MR21 (4)): -0.3 °C
- ΔTm at 10 µM (EpHA4; read-out: dTm MR21 (4)): 4.9 °C
- ΔTm at 10 µM (EphB1; read-out: dTm MR21 (4)): 3.6 °C
- ΔTm at 10 µM (FES; read-out: dTm MR21 (4)): 3 °C
- ΔTm at 10 µM (FGFR1; read-out: dTm MR21 (4)): 3.3 °C
- ΔTm at 10 µM (MRCKa; read-out: dTm MR21 (4)): 0.2 °C
- ΔTm at 10 µM (SLK; read-out: dTm MR21 (4)): 1.6 °C
- ΔTm at 10 µM (TLK1; read-out: dTm MR21 (4)): 0.5 °C
- ΔTm at 10 µM (MST3 [1]; read-out: ∆Tm MR21 (4)): 4.1 °C
- ΔTm at 10 µM (Wnk1; read-out: ∆Tm MR21 (4)): -0.4 °C

Structure (SMILES): CNc1ncc2cc(-c3cc(F)ccc3F)c(=O)n(CCCCN)c2n1 [compound 5, 8-(4-Aminobutyl)-6-(2,5-difluorophenyl)-2-(methylamino)pyrido[2,3-d]pyrimidin-7(8H)-one]
- ΔTm at 10 µM (BIKE; read-out: dTm MR22 (5)): 2.1 °C
- ΔTm at 10 µM (CK2a2; read-out: dTm MR22 (5)): -1 °C
- ΔTm at 10 µM (EpHA2; read-out: dTm MR22 (5)): 6.5 °C
- ΔTm at 10 µM (EpHA4; read-out: dTm MR22 (5)): 3 °C
- ΔTm at 10 µM (EphB1; read-out: dTm MR22 (5)): 4.5 °C
- ΔTm at 10 µM (FGFR1; read-out: dTm MR22 (5)): 3.4 °C
- ΔTm at 10 µM (MRCKa; read-out: dTm MR22 (5)): -0.5 °C
- ΔTm at 10 µM (SLK; read-out: dTm MR22 (5)): -0.6 °C
- ΔTm at 10 µM (TLK1; read-out: dTm MR22 (5)): -1.3 °C
- ΔTm at 10 µM (MST3 [1]; read-out: ∆Tm MR22 (5)): 1.6 °C
- ΔTm at 10 µM (Wnk1; read-out: ∆Tm MR22 (5)): -0.1 °C

Structure (SMILES): CNc1ncc2cc(-c3cc(Br)ccc3Cl)c(=O)n(CCCCN)c2n1 [compound 6, 8-(4-Aminobutyl)-6-(5-bromo-2-chlorophenyl)-2-(methylamino)pyrido[2,3-d]pyrimidin-7(8H)-one]
- ΔTm at 10 µM (BIKE; read-out: dTm 6): 0.6 °C
- ΔTm at 10 µM (CK2a2; read-out: dTm 6): -0.1 °C
- ΔTm at 10 µM (EpHA2; read-out: dTm 6): 6.7 °C
- ΔTm at 10 µM (EphB1; read-out: dTm 6): 4.7 °C
- ΔTm at 10 µM (FES; read-out: dTm 6): 2.5 °C
- ΔTm at 10 µM (FGFR1; read-out: dTm 6): 3 °C
- ΔTm at 10 µM (MRCKa; read-out: dTm 6): 0.5 °C
- ΔTm at 10 µM (TLK1; read-out: dTm 6): 0 °C
- ΔTm at 10 µM (MST3 [1]; read-out: ∆Tm 6): 2.7 °C
- ΔTm at 10 µM (Wnk1; read-out: ∆Tm 6): 0 °C

Structure (SMILES): CNc1ncc2cc(-c3cc(Br)ccc3Cl)c(=O)n(C[C@H]3OC[C@H](N)CO3)c2n1 [compound 7, 8-(((2r,5r)-5-Amino-1,3-dioxan-2-yl)methyl)-6-(5-bromo-2-chlorophenyl)-2-(methylamino)pyrido[2,3-d]pyrimidin-7(8H)-one]
- ΔTm at 10 µM (BIKE; read-out: dTm 7): 0.7 °C
- ΔTm at 10 µM (CK2a2; read-out: dTm 7): 0.1 °C
- ΔTm at 10 µM (EpHA2; read-out: dTm 7): 4.8 °C
- ΔTm at 10 µM (EpHA4; read-out: dTm 7): 3.6 °C
- ΔTm at 10 µM (EphB1; read-out: dTm 7): 3.1 °C
- ΔTm at 10 µM (FES; read-out: dTm 7): 1.1 °C
- ΔTm at 10 µM (FGFR1; read-out: dTm 7): 2.9 °C
- ΔTm at 10 µM (MRCKa; read-out: dTm 7): 0.1 °C
- ΔTm at 10 µM (TLK1; read-out: dTm 7): 0.9 °C
- ΔTm at 10 µM (MST3 [1]; read-out: ∆Tm 7): 0.8 °C
- ΔTm at 10 µM (Wnk1; read-out: ∆Tm 7): 1.1 °C

Structure (SMILES): CNc1ncc2cc(-c3cc(Cl)ccc3Cl)c(=O)n(CCCCN)c2n1 [compound 8, 8-(4-Aminobutyl)-6-(2,5-dichlorophenyl)-2-(methylamino)pyrido[2,3-d]pyrimidin-7(8H)-one]
- ΔTm at 10 µM (MST3 [2]; read-out: ∆Tm 8): 1.9 °C
- ΔTm at 10 µM (PAK1; read-out: ∆Tm 8): 0.7 °C

Structure (SMILES): CNc1ncc2cc(-c3cc(Cl)ccc3Br)c(=O)n(CCCCN)c2n1 [compound 10, 8-(4-Aminobutyl)-6-(2-bromo-5-chlorophenyl)-2-(methylamino)pyrido[2,3-d]pyrimidin-7(8H)-one]
- ΔTm at 10 µM (MST3 [2]; read-out: ∆Tm 10): 2 °C
- ΔTm at 10 µM (PAK1; read-out: ∆Tm 10): 0.6 °C

Structure (SMILES): CNc1ncc2cc(-c3cc(Br)ccc3Br)c(=O)n(CCCCN)c2n1 [compound 11, 8-(4-Aminobutyl)-6-(2,5-dibromophenyl)-2-(methylamino)pyrido[2,3-d]pyrimidin-7(8H)-one]
- ΔTm at 10 µM (MST3 [2]; read-out: ∆Tm 11): 1.9 °C
- ΔTm at 10 µM (PAK1; read-out: ∆Tm 11): 0.7 °C

— article doi:10.1101/2023.03.24.534094v2 (biorxiv, 2023)
